# Assay results reported in article PMC9126592, “sp^2-Iminosugars targeting human lysosomal β-hexosaminidase as pharmacological chaperone candidates for late-onset Tay-Sachs disease” (Journal of Enzyme Inhibition and Medicinal Chemistry, 2022).
# Biological target: T1, recombinant human O-GlcNAcase (hOGA) (Homo sapiens, UniProt O60502)
# T1 construct: the N-terminal region of hOGA, comprising amino acids 11–396; the C-terminal region, comprising amino acids 535–715; His6 (N); His6 followed by 3C-protease cleavage site (N); made in house; host or cells: E. coli Bl21(DE3)-Gold
# T1 sequence (O60502 11-396): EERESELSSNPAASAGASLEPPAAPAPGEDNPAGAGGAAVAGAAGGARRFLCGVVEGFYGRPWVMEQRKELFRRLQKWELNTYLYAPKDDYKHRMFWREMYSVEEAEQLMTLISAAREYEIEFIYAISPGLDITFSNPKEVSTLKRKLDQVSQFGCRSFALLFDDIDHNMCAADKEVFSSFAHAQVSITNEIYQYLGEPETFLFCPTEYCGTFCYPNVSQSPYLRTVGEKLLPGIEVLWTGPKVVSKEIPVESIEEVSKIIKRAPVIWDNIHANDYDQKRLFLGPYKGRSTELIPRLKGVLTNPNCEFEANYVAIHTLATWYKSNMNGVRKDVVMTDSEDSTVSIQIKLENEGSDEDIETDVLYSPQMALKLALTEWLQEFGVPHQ
# T1 sequence (O60502 535-715): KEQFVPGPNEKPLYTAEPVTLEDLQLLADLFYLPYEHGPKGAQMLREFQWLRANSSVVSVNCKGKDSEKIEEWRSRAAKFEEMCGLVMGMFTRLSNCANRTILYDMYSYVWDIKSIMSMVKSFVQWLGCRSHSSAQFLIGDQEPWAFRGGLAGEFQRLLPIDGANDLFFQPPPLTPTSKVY
# Test: Inhibition of recombinant human O-GlcNAcase (resorufin N-acetyl-β-D-glucosaminide)
# Type: biochemical
# Conditions: read-out: IC50 against OGA
# From the text: The gene of the longest isoform of hOGA (hOGA-L; Uniprot Accession number: O60502) was synthesised in a codon-optimised form for recombinant expression in Escherichia coli. The successful expression construct encoded the N-terminal region of hOGA, comprising amino acids 11–396, and the C-terminal region, comprising amino acids 535–715. The N-terminal construct was cloned in the vector pACYC-Duet (Millipore) using the sequence and ligation-independent cloning method in frame with an N-terminal His6 tag. The C-terminal construct was cloned into the vector pET-YSBLIC3C27 with an N-terminal His6 tag followed by a 3 C-protease cleavage site using the same method. The nucleotide sequences of all made constructs were confirmed by sequencing. Both vectors were simultaneously transformed into E. coli Bl21(DE3)-Gold (Agilent) for subsequent protein expression. Cells were grown in 2 L TB-medium to an OD600 of ∼1.0 and protein synthesis was then induced by adding IPTG to a final concentration of 0.1 mM. Protein expression was carried out at 16 °C with an induction time of 20 h. The cells were harvested by centrifugation at 4,500 × g for 20 min, flash frozen and stored at −20 °C until required. For purification of the hOGA complex, cells were resuspended in 50 mM HEPES pH 7.0, 750 mM NaCl, 20 mM imidazole, and 0.5 mM DTT (resuspension buffer). Cells were lysed using a French Press at 25 kPsi. The lysate was cleared by centrifugation at 50,000 g for 1 h, and the supernatant was passed through a 10 ml HisTrap FF column (GE Healthcare) pre-equilibrated with resuspension buffer. The bound hOGA was purified by gradient elution over 10 column volumes using 0% to 50% of elution buffer (50 mM HEPES pH 7.0, 750 mM NaCl, 500 mM imidazole and 0.5 mM DTT). hOGA-containing fractions were combined, concentrated by ultrafiltration using Vivaspin columns (Sartorius) with a molecular weight cut-off (MWCO) of 30 kDa, and applied to a Superdex S200 column (GE Healthcare) pre-equilibrated with size-exclusion buffer (10 mM HEPES pH 7.0, 250 mM NaCl, 1 mM DTT). Fractions corresponding to the dimeric form of hOGA were combined and concentrated to 20 mg/mL by ultrafiltration with a Vivaspin (MWCO: 30 kDa) column, flash frozen using liquid nitrogen, and stored at −80 °C until required.
# Inhibition assays were run at 0.2 nM [hOGA] in the same buffer, in the presence or absence of various concentrations of inhibitors and at a fixed substrate concentration of 25 µM and 1% DMSO. First, inhibitor was serially diluted to the desired range of concentrations in 2% DMSO buffer. Next, 50 µL of inhibitor solutions at various concentrations in 2% DMSO Buffer was added to 50 μl of 0.8 nM enzyme and allowed to incubate at 25 °C for 5 min. 100 µL of 50 µM and 1% DMSO substrate was then added and reaction mixture was immediately mixed and aliquoted in 45 µL triplicates to a CORNING 384 well black plate. Fluorescence signal was measured continuously for 20 min at 37 °C in a BioTek Neo 2 Plate reader set at excitation and emission wavelengths of 572 and 610 nm, respectively. Max reaction rates for all inhibitor concentrations were calculated within Gen5 BioTek reader software. % Activity was subsequently calculated for each inhibitor concentration against the max reaction rate of uninhibited hOGA.
row,Compound,IC50
1,"CC(=O)NC1CN2C(=NCc3ccccc3)SCC2C(O)C1O (stereo not drawn) [Compound 7, 2-Acetamido-1,2-dideoxy-5-N,6-S-(N’-benzyliminomethylidene)-6-thiogalactonojirimycin]",25 µM

# Same assay, conditions: recombinant human O-GlcNAcase; read-out: Ki OGA
row,Compound,Ki
1,"CCCCN=C1SCC2C(O)C(O)C(NC(C)=O)CN12 (stereo not drawn) [Compound 5, 2-Acetamido-1,2-dideoxy-5-N,6-S-(N’-butyliminomethylidene)-6-thiogalactonojirimycin]",> 100 µM
2,"CCCCCCCCN=C1SCC2C(O)C(O)C(NC(C)=O)CN12 (stereo not drawn) [Compound 6, 2-Acetamido-1,2-dideoxy-5-N,6-S-(N’-octyliminomethylidene)-6-thiogalactonojirimycin]",> 100 µM
3,"CCCCCCCCNC(=S)N1C[C@H](NC(C)=O)[C@@H](O)[C@@H](O)[C@H]1CO [Compound 2, 2-Acetamido-1,2-dideoxy-5-N-(N’-octylthiocarbamoyl)galactonojirimycin]",> 100 µM
4,"CC(=O)N[C@H]1CN(C(=S)Nc2ccccc2)[C@H](CO)[C@H](O)[C@@H]1O [Compound 4, 2-Acetamido-1,2-dideoxy-5-N-(N’-phenylthiocarbamoyl)galactonojirimycin]",> 100 µM
5,"CC(=O)N[C@H]1CN(C(=S)NCc2ccccc2)[C@H](CO)[C@H](O)[C@@H]1O [Compound 3, 2-Acetamido-1,2-dideoxy-5-N-(N’-benzylthiocarbamoyl)galactonojirimycin]",> 100 µM
6,"CC(=O)NC1CN2C(=Nc3ccccc3)SCC2C(O)C1O (stereo not drawn) [Compound 8, 2-Acetamido-1,2-dideoxy-5-N,6-S-(N’-phenyliminomethylidene)-6-thiogalactonojirimycin]",> 100 µM
7,"CCCCNC(=S)N1C[C@H](NC(C)=O)[C@@H](O)[C@@H](O)[C@H]1CO [Compound 1, 2-Acetamido-1,2-dideoxy-5-N-(N’-butylthiocarbamoyl)galactonojirimycin]",> 100 µM
8,"CC(=O)NC1CN2C(=NCc3ccccc3)SCC2C(O)C1O (stereo not drawn) [Compound 7, 2-Acetamido-1,2-dideoxy-5-N,6-S-(N’-benzyliminomethylidene)-6-thiogalactonojirimycin]",25 µM
